Experimental data as given in patent EP0895988B1, “Arylsulfonylamino hydroxamic acid derivatives” (Pfizer Products Inc., priority 1997, dated 1999).
Several values for one entry are separate records, joined by “and”; a condition that tells them apart may be missing. Identical values can stand only once.

Key:
[1] = molecular target: T1, Human recombinant collagenase (MMP-1) (Homo sapiens, UniProt P03956); experiment: Inhibition of Human Collagenase (MMP-1); format: biochemical; details: fluorogenic substrate DNP-Pro-Cha-Gly-Cys(Me)-His-Ala-Lys(NMA)-NH2; room temperature; repeated determinations
T1 sequence (P03956 100-469): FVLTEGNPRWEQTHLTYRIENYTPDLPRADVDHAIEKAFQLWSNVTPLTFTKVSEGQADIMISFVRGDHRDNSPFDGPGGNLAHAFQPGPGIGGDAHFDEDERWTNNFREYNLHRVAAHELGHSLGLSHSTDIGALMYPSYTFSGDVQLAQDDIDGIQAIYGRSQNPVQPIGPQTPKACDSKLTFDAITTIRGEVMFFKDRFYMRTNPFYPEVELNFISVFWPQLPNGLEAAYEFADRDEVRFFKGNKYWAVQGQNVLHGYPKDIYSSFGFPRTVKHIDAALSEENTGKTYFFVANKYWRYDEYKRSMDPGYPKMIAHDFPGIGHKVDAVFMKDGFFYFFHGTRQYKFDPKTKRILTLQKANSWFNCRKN
Procedure: Human recombinant collagenase is activated with trypsin using the following ratio: […] of collagenase. The trypsin and collagenase are incubated at room temperature for 10 minutes then a five fold excess (50 mg/10 mg trypsin) of soybean trypsin inhibitor is added.
10 mM stock solutions of inhibitors are made up in dimethyl sulfoxide and then diluted using the following Scheme: 10 mM → 120 µm → 12 µM → 1.2 µM → 0.12 µM [formula]
Twenty-five microliters of each concentration is then added in triplicate to appropriate wells of a 96 well microfluor plate. The final concentration of inhibitor will be a 1:4 dilution after addition of enzyme and substrate. Positive controls (enzyme, no inhibitor) are set up in wells D1-D6 and blanks (no enzyme, no inhibitors) are set in wells D7-D12.
Collagenase is diluted to 400 ng/ml and […] is then added to appropriate wells of the microfluor plate. Final concentration of collagenase in the assay is 100 ng/ml.
Substrate (DNP-Pro-Cha-Gly-Cys(Me)-His-Ala-Lys(NMA)-NH2) is made as a 5 mM stock in dimethyl sulfoxide and then diluted to […] in assay buffer. The assay is initiated by the addition of […] substrate per well of the microfluor plate to give a final concentration of […].
Fluorescence readings (360 nm excitation, 460 nm emission) were taken at time 0 and then at 20 minute intervals. The assay is conducted at room temperature with a typical assay time of 3 hours.
Fluorescence vs time is then plotted for both the blank and collagenase containing samples (data from triplicate determinations is averaged). […] The zero time is used as a blank for each compound at each concentration and these values are subtracted from the 120 minute data. Data is plotted as inhibitor concentration vs % control (inhibitor fluorescence divided by fluorescence of collagenase alone x 100). IC50's are determined from the concentration of inhibitor that gives a signal that is 50% of the control.
If IC50's are reported to be <0.03 mM then the inhibitors are assayed at concentrations of 0.3 mM, 0.03 mM, […].

Human recombinant MMP-13 = Human recombinant MMP-13 (Homo sapiens, UniProt P45452); experiment: Inhibition of MMP-13; format: biochemical; details: fluorogenic substrate Dnp-Pro-Cha-Gly-Cys(Me)-His-Ala-Lys(NMA)-NH2; repeated determinations
Procedure: Human recombinant MMP-13 is activated with 2mM APMA (p-aminophenyl mercuric acetate) for 1.5 hours, at 37°C and is diluted to […] in assay buffer (50 mM Tris, pH 7.5, 200 mM sodium chloride, 5mM calcium chloride, […], 0.02% brij). Twenty-five microliters of diluted enzyme is added per well of a 96 well microfluor plate. The enzyme is then diluted in a 1:4 ratio in the assay by the addition of inhibitor and substrate to give a final concentration in the assay of […].
10 mM stock solutions of inhibitors are made up in dimethyl sulfoxide and then diluted in assay buffer as per the inhibitor dilution scheme for inhibition of human collagenase (MMP-1): Twenty-five microliters of each concentration is added in triplicate to the microfluor plate. The final concentrations in the assay are 30 mM, 3mM, 0.3 mM, and 0.03 mM.
Substrate (Dnp-Pro-Cha-Gly-Cys(Me)-His-Ala-Lys(NMA)-NH2) is prepared as for inhibition of human collagenase (MMP-1) and […] is added to each well to give a final assay concentration of […]. Fluorescence readings (360 nm excitation; 450 emission) are taken at time 0 and every 5 minutes for 1 hour.
Positive controls consist of enzyme and substrate with no inhibitor and blanks consist of substrate only.
IC50's are determined as per inhibition of human collagenase (MMP-1). If IC50's are reported to be less than […], inhibitors are then assayed at final concentrations of 0.3 mM, 0.03 mM, 0.003 mM and 0.0003 mM.

IC50 [1]	IC50 (Human recombinant MMP-13)	Compound
80 nM and 145 nM	10 nM and 12 nM	COC(=O)CCN(C1(C(=O)NO)CCCC1)S(=O)(=O)c1ccc(-c2ccc(F)cc2)cc1 [Example 1, 3-[(4'-FLUOROBIPHENYL-4-SULFONYL)-(1-HYDROXYCARBAMOYLCYCLO-PENTYL)AMINO]PROPIONIC ACID METHYL ESTER]
195 nM and 300 nM and 200 nM	1.7 nM and 3.5 nM and 2 nM	O=C(O)CCN(C1(C(=O)NO)CCCC1)S(=O)(=O)c1ccc(-c2ccc(F)cc2)cc1 [Example 2, 3-[(4'-FLUOROBIPHENYL-4-SULFONYL)-(1-HYDROXYCARBAMOYLCYCLO-PENTYL)AMINO]PROPIONIC ACID]
4000 nM and 1300 nM	20 nM and 17 nM	CCOC(=O)CCN(C(C)(C)C(=O)NO)S(=O)(=O)c1ccc(-c2ccc(F)cc2)cc1 [Example 3, 3-{(4'-FLUOROBIPHENYL-4-SULFONYL)-(1-HYDROXYCARBAMOYL-1-METHYL-ETHYL)AMINO]-PROPIONIC ACID ETHYL ESTER]
800 nM	52 nM	CC(C)(C(=O)NO)N(CCC(=O)O)S(=O)(=O)c1ccc(-c2ccc(F)cc2)cc1 [Example 4, 3-[(4'-FLUOROBIPHENYL-4-SULFONYL)-(1-HYDROXYCARBAMOYL-1-METHYL-ETHYL)AMINO]PROPIONIC ACID]
